Measured values: PubChem BioAssay (NCI)
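Protocol summary: plate cells (96-well), add compound at 5 concentrations, incubate 48 h, interpolate endpoints linearly. The concentration for 50% growth inhibition is given as GI50. TGI: concentration producing complete growth inhibition.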

Key:
Experiment in all cases: inhibition of tumour cell growth, NCI panel, 48 h
UO-31 renal = system: UO-31 renal
NCI/ADR-RES ovarian = system: NCI/ADR-RES ovarian
OVCAR-3 ovarian = system: OVCAR-3 ovarian
TK-10 renal = system: TK-10 renal
SNB-75 CNS = system: SNB-75 CNS
786-0 renal = system: 786-0 renal
SN12C renal = system: SN12C renal
MDA-MB-435 = system: MDA-MB-435
UACC-257 melanoma = system: UACC-257 melanoma
HCT-116 colon = system: HCT-116 colon

Row | Structure (SMILES) | GI50 (UO-31 renal) [µM] | TGI (UO-31 renal) [µM] | GI50 (NCI/ADR-RES ovarian) [µM] | TGI (NCI/ADR-RES ovarian) [µM] | GI50 (OVCAR-3 ovarian) [µM] | TGI (OVCAR-3 ovarian) [µM] | GI50 (TK-10 renal) [µM] | TGI (TK-10 renal) [µM] | GI50 (SNB-75 CNS) [µM] | TGI (SNB-75 CNS) [µM] | GI50 (786-0 renal) [µM] | TGI (786-0 renal) [µM] | GI50 (SN12C renal) [µM] | TGI (SN12C renal) [µM] | GI50 (MDA-MB-435) [µM] | TGI (MDA-MB-435) [µM] | GI50 (UACC-257 melanoma) [µM] | TGI (UACC-257 melanoma) [µM] | GI50 (HCT-116 colon) [µM] | TGI (HCT-116 colon) [µM]
1 | O=[N+]([O-])c1ccc(N/N=C/c2c(O)ccc3ccccc23)nc1 | 1.25 | > 100 | 1.82 | > 100 | 0.517 | > 100 | 55.9 | > 100 | > 100 | > 100 | 13.3 | > 100 | 48.5 | > 100 | 55.2 | > 100 | 8.75 | > 100 | 3.16 | > 100
2 | NNc1cccc(/C=C/c2ccccc2)cc1=O | 1.86 | 9.24 | 4.36 | > 100 | 7.35 | 62.6 | 50.6 | > 100 | 31 | > 100 | 19.9 | > 100 | 15.2 | > 100 | 4.31 | 50.1 | 26.7 | > 100 | 7.3 | > 100
3 | O=C1CSC(/C(=C\c2ccc(Cl)cc2)c2nc3ccccc3[nH]2)=N1 |  | 7.64 |  | 36.9 |  | 20.9 |  | 24.8 |  | 28.8 |  | 26.4 |  | 34.2 |  | 32.6 |  | 34.7 |  | 30.4
4 | COC(=O)c1sc(C(=O)OC)c2c1CSC2 |  | > 100 |  | > 100 |  | > 100 |  | > 100 |  | 57.7 |  | > 100 |  | > 100 |  | > 100 |  | > 100 |  | > 100
5 | N#Cc1c(-c2ccccc2)cc(-c2ccc(Nc3nc(Nc4ccc(Cl)cc4)nc(Nc4ccc(Cl)cc4)n3)cc2)nc1N | 1.1 | 2.33 | 16.2 | > 100 | 1.7 | 3.68 | 1.89 | 4.4 | 2.65 | 14.4 | 1.91 | 3.46 | 3.37 | > 100 | 2.8 | 14.1 | 1.92 | 4.47 | 1.48 | 3
6 | Cc1nc2ccc(Nc3nc(NCCN4CCOCC4)nc(Nc4ccc(F)cc4)n3)cc2n1Cc1ccccc1 | 1.78 | 8.2 | 3.79 | 40.1 | 4.24 | 20.3 | 7.26 | 32.2 | 1.59 | 4.82 | 1.41 | 3.04 | 5.57 | > 100 | 2.23 | 6.25 | 1.74 | 3.27 | 2.02 | 5.43
7 | CC1=C[C@H]2c3c(c(O)c(O)c4oc5ccccc5c(=O)c34)[C@H](c3cc(O)c(O)c4oc5ccccc5c(=O)c34)[C@H]2C(C)(C)C1 | 0.73 | 2.18 | 3.07 | 16.3 | 0.426 | 10.5 | 2.19 | 15.3 | 0.637 | 6.59 | 1.99 | 6.24 | 1.36 | 6.71 | 0.839 | 4.42 | 2.65 | 18.1 | 0.224 | 1.75
8 | O=C1C=C(Br)C(=O)C12CCc1ccccc12 (stereo not given) |  | 33 |  | 81.3 |  | 41.8 |  | 32.3 |  | 29.5 |  | 42.3 |  | 35 |  | 31.8 |  | 41.3 |  | 28.7
9 | O=C(Nc1ccc(F)cc1)c1c(NC(=O)C(F)(F)F)sc2c1CCCCC2 | 1.87 | 6.9 | 2.01 | 7.82 | 2.04 | 16.3 | 3.96 | 12.5 | 1.34 | 5.57 | 2.43 | 10.5 | 1.94 | 8.67 | 2.69 | 17 | 2.21 | 7.17 | 2.05 | 10.3
10 | COc1ccc(-c2cc(/C=C3\C(=O)Nc4ccc(Cl)cc43)[nH]n2)cc1 | 4.02 | 16.9 | 3.85 | 17.7 | 3.05 | 8.42 | 8.8 | 20.7 | 2.26 | 8.49 | 5.28 | 17.4 | 5.51 | 18.2 | 1.86 | 4.47 | 8.78 | 21.4 | 4.13 | 14.1
11 | C[C@]1(CO)[C@H]2CC[C@@]34C=C[C@@](CO)(CC[C@H]3[C@]2(C)CC[C@H]1O)C4 |  | > 100 |  | > 100 |  | > 100 |  | > 100 |  | > 100 |  | > 100 |  | > 100 |  | > 100 |  | > 100 |  | > 100
12 | CC[C@@]1(O)C(=O)NCc2c1cc1n(c2=O)Cc2cc3c(N)cccc3nc2-1 | 0.866 | 7.12 | 2.29 | 38.5 | 11 | 40 | 20.1 | > 52.8 | 0.873 | > 18.3 | 1.37 | 11.7 | 0.529 | 35.2 | 4.8 | 18.5 | 6.15 | > 79.5 | 1.22 | 44.2
13 | O=C(NCCCNc1cc(-c2cn(-c3ccccc3)nc2-c2cccc(O)c2)ccn1)c1ccccc1 | 2.36 | 23.6 | 2.67 | 9.79 | 3.73 | 21 | 8.39 | 52.6 | 1.68 | 46.9 | 2.04 | 4.69 | 6 | > 100 | 1.87 | 4.75 | 2.07 | 4.4 | 3.58 | 17
14 | Nc1ccc2c(c1)NCCN2 |  | > 100 |  | > 100 |  | > 100 |  | > 100 |  | > 100 |  | > 100 |  | > 100 |  | > 100 |  | > 100 |  | > 100
15 | OCC1OC(n2ccc3c(NO)ncnc32)C(O)C1O (stereo not given) | 0.0536 | 0.502 | 0.238 | 1.64 | 0.249 | 0.884 | 0.152 | 1.16 | 0.172 | 1.82 | 0.239 | 1.1 | 0.212 | 1.61 | 0.198 | 0.632 | 0.232 | 0.866 | 0.0296 | 1.03
16 | N#Cc1cnc2cc(OC[C@@H](O)CO)c(NC(=O)CC3CSSC3)cc2c1Nc1ccc(OCc2cccc(F)c2)c(Cl)c1 | 1.63 | 5.5 | 2.19 | 3.16 | 0.284 | 0.913 | 0.772 | 1.51 | 0.738 | 1.58 | 1.38 | 4.57 | 0.144 | 0.49 | 0.113 | 0.303 | 0.195 | 0.829 | 0.0882 | 0.2
17 | CC(C)c1ccc(/C(C(=O)O)=C(\O)C(=O)O)cc1 |  | > 100 |  | > 100 |  | > 100 |  | > 100 |  | > 100 |  | > 100 |  | > 100 |  | > 100 |  | > 100 |  | > 100
18 | C=C1C(=O)O[C@H]2[C@H]1CC/C(COC(=O)NCc1ccc(Cn3c(=O)sn(CCCCl)c3=O)cc1)=C\CC[C@@]1(C)O[C@@H]21 | 1.4 | 2.75 | 26.9 | > 100 | 0.776 | 2.09 | 1.75 | 3.34 | 2.03 | 11.4 | 1.48 | 2.9 | 1.36 | 3.15 | 1.8 | 3.89 | 1.61 | 3.41 | 0.565 | 1.87
